Test results: patent US11806342B2, “Diiodohydroxyquinoline for the treatment of clostridium difficile infection” (Purdue Research Foundation, priority 2019, dated 2023)
Converted amounts (≈) assume the structure as drawn.

Experiments:
[1] = tested on: Bifidobacterium breve HM-411; test: MIC against normal gut microflora, broth microdilution; type: cell-based; conditions: HM411; Bifidobacterium breve HM-411; read-out: MIC
Description: (§1) In vitro antimicrobial evaluation of diiodohydroxyquinoline against normal microflora. The broth microdilution assay was utilized to determine the MICs of DIHQ and control antibiotics against commensal organisms that compose he human gut microflora, as described elsewhere. A bacterial solution equivalent to 0.5 McFarland standard was prepared and diluted in BHIS broth (for Bifidobacterium and Bacteroides) or in MRS broth (for Lactobacillus) to achieve a bacterial concentration of about 5×10^5 CFU/mL. Then, drugs were added and serially diluted along the plates.

[2] = tested on: Bifidobacterium angulatum HM-1189; test: as above; type: cell-based; conditions: HM1189; Bifidobacterium angulatum HM-1189; read-out: MIC
Description: as §1

[3] = tested on: Lactobacillus crispatus HM-371; test: as above; type: cell-based; conditions: HM371; Lactobacillus crispatus HM-371; read-out: MIC
Description: as §1

Bacteroides dorei HM-29 = test: as above; type: cell-based; conditions: Phocaeicola dorei, HM29; Bacteroides dorei HM-29; read-out: MIC
Description: as §1

[4] = tested on: Bifidobacterium adolescentis HM-633; test: as above; type: cell-based; conditions: HM633; Bifidobacterium adolescentis HM-633; read-out: MIC
Description: as §1

Bacteroides dorei HM-719 = test: as above; type: cell-based; conditions: Phocaeicola dorei, HM719; Bacteroides dorei HM-719; read-out: MIC
Description: as §1

[5] = tested on: Lactobacillus casei ATCC 334; test: as above; type: cell-based; conditions: Lacticaseibacillus casei, ATCC334; Lactobacillus casei ATCC 334; read-out: MIC
Description: as §1

[6] = tested on: Bifidobacterium longum HM-847; test: as above; type: cell-based; conditions: HM847; Bifidobacterium longum HM-847; read-out: MIC
Description: as §1

[7] = tested on: Bifidobacterium breve HM-1120; test: as above; type: cell-based; conditions: HM1120; Bifidobacterium breve HM-1120; read-out: MIC
Description: as §1

[8] = tested on: Bacteroides fragilis HM-710; test: as above; type: cell-based; conditions: HM710; Bacteroides fragilis HM-710; read-out: MIC
Description: as §1

C. difficile ATCC 43255 [9] = test: Initial screening of antiparasitic drugs, broth microdilution MIC; type: cell-based, Clostridium difficile; conditions: Clostridioides difficile, ATCC43255; initial screening, C. difficile ATCC 43255; read-out: MIC
Description: C. difficile strains were grown anaerobically on brain heart infusion supplemented (BHIS) agar plates at 37° C. for 48 hours. Afterwards, a bacterial solution equivalent to 0.5 McFarland standard was prepared and diluted in (BHIS) broth to achieve a bacterial concentration of about 5×10^5 CFU/mL. Drugs were added and serially diluted along the plates. Plates were then, incubated anaerobically at 37° C. for 48 hours. MICs reported in Table (1) are the minimum concentrations of the drugs that could completely suppress the visual growth of bacteria.

C. difficile NR-49277 = test: Spore inhibition assay; type: cell-based, Clostridium difficile; conditions: five days
Description: (§2) The spore inhibition assay was performed as described in previous reports to investigate the effect of diiodohydroxyquinoline on C. difficile spore formation. Briefly, […], the bacterial suspension was split into microcentrifuge tubes and drugs were added (in triplicates) at concentrations equal to ½×MIC or 1×MIC. Tubes were then, incubated anaerobically for five days at 37° C. Thereafter, an aliquot from each tube was diluted and plated on BHIS agar plates supplemented with 0.1% taurocholic acid, to count the total bacterial counts (vegetative bacteria+spores). The remaining solution was centrifuged, and the pellet was suspended in PBS, stored overnight at 4° C., and subsequently shock-heated at 70° C. for 30 minutes to kill the vegetative cells. The resulting solution was serially diluted and plated to determine the heat-resistant spore counts. Spore inhibition assay was performed as described in previous reports to investigate the effect of DIHQ on C. difficile spore formation. Briefly, log-phase cultures of C. difficile strains (ATCC BAA-1870, ATCC 43255, and NR-49277) were diluted in BHIS to an initial density of ˜10^6 CFU/mL. Afterwards, the bacterial suspension was split in small tubes and the drugs were added (in triplicates) at concentrations equal to ½×MIC or 1×MIC. Tubes were then incubated anaerobically for 5 days at 37° C. After that, an aliquot from each tube was diluted and plated on BHIS agar plates supplemented with 0.1% taurocholic acid, to count the total bacterial count (vegetative bacteria+spores). The remaining solution was centrifuged, and the pellet was suspended in PBS and stored overnight at 4° C. then shock heated at 70° C. for 30 minutes to kill the vegetative cells. The resulting solution was serially diluted and plated to determine the heat-resistant spore counts.

C. difficile ATCC 43255 [10] = test: Spore inhibition assay; type: cell-based, Clostridium difficile; conditions: five days
Description: as §2

[11] = tested on: C. difficile ATCC BAA-1870; test: Spore inhibition assay; type: cell-based, Clostridium difficile; conditions: five days
Description: as §2

C. difficile I6 = test: Checkerboard assay, DIHQ with metronidazole or vancomycin; type: cell-based, Clostridium difficile
Description: (§3) Interactions between diiodohydroxyquinoline and the anticlostridial drugs (metronidazole and vancomycin) against Clostridium difficile clinical isolates. […] The fractional inhibitory concentration index (ΣFIC) was calculated for each interaction. Interactions where the ΣFIC index was ≤0.5 were categorized as synergistic (SYN).

C. difficile ATCC 9689 = test: as above; type: cell-based, Clostridium difficile
Description: as §3

C. difficile ATCC 1801 = test: as above; type: cell-based, Clostridium difficile
Description: as §3

C. difficile P30 = test: as above; type: cell-based, Clostridium difficile
Description: as §3

C. difficile P11 = test: as above; type: cell-based, Clostridium difficile
Description: as §3

C. difficile P19 = test: as above; type: cell-based, Clostridium difficile
Description: as §3

[12] = C. difficile ATCC BAA-1870, 1×MIC
[13] = C. difficile ATCC BAA-1870, ½×MIC
[14] = DIHQ with metronidazole, C. difficile I6
[15] = DIHQ with vancomycin, C. difficile I6
[16] = DIHQ with metronidazole, C. difficile ATCC 9689
[17] = DIHQ with vancomycin, C. difficile ATCC 9689
[18] = DIHQ with metronidazole, C. difficile ATCC 1801
[19] = DIHQ with vancomycin, C. difficile ATCC 1801
[20] = DIHQ with metronidazole, C. difficile P30
[21] = DIHQ with vancomycin, C. difficile P30
[22] = DIHQ with metronidazole, C. difficile P11
[23] = DIHQ with vancomycin, C. difficile P11
[24] = DIHQ with metronidazole, C. difficile P19
[25] = DIHQ with vancomycin, C. difficile P19

Compound: Oc1c(I)cc(I)c2cccnc12 [DIHQ, 5,7-diiodoquinolin-8-ol]
- MIC [1]: > 128 µg/mL
- MIC [2]: 128 µg/mL (≈ 322 µM)
- MIC [3]: 64 µg/mL (≈ 161 µM)
- MIC (Bacteroides dorei HM-29): > 128 µg/mL
- MIC [4]: 128 µg/mL (≈ 322 µM)
- MIC (Bacteroides dorei HM-719): > 128 µg/mL
- MIC [5]: 16 µg/mL (≈ 40.3 µM)
- MIC [6]: 128 µg/mL (≈ 322 µM)
- MIC [7]: > 128 µg/mL
- MIC [8]: > 128 µg/mL
- MIC (C. difficile ATCC 43255 [9]): 0.5 µg/mL (≈ 1.26 µM)
- reduction in spore count (C. difficile NR-49277; C. difficile NR-49277, 1×MIC): ~0.62 log10
- reduction in spore count (C. difficile NR-49277; C. difficile NR-49277, ½×MIC): ~0.56 log10
- reduction in spore count (C. difficile ATCC 43255 [10]; C. difficile ATCC 43255, 1×MIC): ~0.99 log10
- reduction in spore count (C. difficile ATCC 43255 [10]; C. difficile ATCC 43255, ½×MIC): ~0.38 log10
- reduction in spore count [11, 12]: ~1.24 log10
- reduction in spore count [11, 13]: ~0.74 log10
- MIC of DIHQ combined with metronidazole (C. difficile I6; C. difficile I6): 0.125 µg/mL
- MIC of DIHQ combined with vancomycin (C. difficile I6; C. difficile I6): 0.5 µg/mL
- MIC alone (C. difficile I6; C. difficile I6, Table 4): 2 µg/mL
- MIC (C. difficile I6; Clostridioides difficile, C. difficile I6, Table 3, read-out: MIC alone): 2 µg/mL
- Interpretation (C. difficile I6; [14]): SYN (ΣFIC index ≤0.5 is considered synergistic (SYN))
- ΣFIC Index (C. difficile I6; [14]): 0.188
- Interpretation (C. difficile I6; [15]): SYN (ΣFIC index ≤0.5 is considered synergistic (SYN))
- ΣFIC Index (C. difficile I6; [15]): 0.375
- MIC of DIHQ combined with metronidazole (C. difficile ATCC 9689; C. difficile ATCC 9689): 0.06 µg/mL
- MIC of DIHQ combined with vancomycin (C. difficile ATCC 9689; C. difficile ATCC 9689): 0.06 µg/mL
- MIC alone (C. difficile ATCC 9689; C. difficile ATCC 9689, Table 4): 0.125 µg/mL
- MIC (C. difficile ATCC 9689; Clostridioides difficile, ATCC9689, C. difficile ATCC 9689, Table 3, read-out: MIC alone): 0.125 µg/mL
- Interpretation (C. difficile ATCC 9689; [16]): ADD (ΣFIC index >0.5 − 1.25 is considered additive (ADD))
- ΣFIC Index (C. difficile ATCC 9689; [16]): 0.62
- Interpretation (C. difficile ATCC 9689; [17]): ADD (ΣFIC index >0.5 − 1.25 is considered additive (ADD))
- ΣFIC Index (C. difficile ATCC 9689; [17]): 0.625
- MIC of DIHQ combined with metronidazole (C. difficile ATCC 1801; C. difficile ATCC 1801): 1 µg/mL
- MIC of DIHQ combined with vancomycin (C. difficile ATCC 1801; C. difficile ATCC 1801): 2 µg/mL
- MIC alone (C. difficile ATCC 1801; C. difficile ATCC 1801, Table 4): 4 µg/mL
- MIC (C. difficile ATCC 1801; Clostridioides difficile, ATCC1801, C. difficile ATCC 1801, Table 3, read-out: MIC alone): 4 µg/mL
- Interpretation (C. difficile ATCC 1801; [18]): SYN (ΣFIC index ≤0.5 is considered synergistic (SYN))
- ΣFIC Index (C. difficile ATCC 1801; [18]): 0.37
- Interpretation (C. difficile ATCC 1801; [19]): ADD (ΣFIC index >0.5 − 1.25 is considered additive (ADD))
- ΣFIC Index (C. difficile ATCC 1801; [19]): 0.625
- MIC of DIHQ combined with metronidazole (C. difficile P30; C. difficile P30): 0.06 µg/mL
- MIC of DIHQ combined with vancomycin (C. difficile P30; C. difficile P30): 0.125 µg/mL
- MIC alone (C. difficile P30; C. difficile P30, Table 4): 1 µg/mL
- MIC (C. difficile P30; Clostridioides difficile, C. difficile P30, Table 3, read-out: MIC alone): 1 µg/mL
- Interpretation (C. difficile P30; [20]): SYN (ΣFIC index ≤0.5 is considered synergistic (SYN))
- ΣFIC Index (C. difficile P30; [20]): 0.185
- Interpretation (C. difficile P30; [21]): SYN (ΣFIC index ≤0.5 is considered synergistic (SYN))
- ΣFIC Index (C. difficile P30; [21]): 0.25
- MIC of DIHQ combined with metronidazole (C. difficile P11; C. difficile P11): 0.125 µg/mL
- MIC of DIHQ combined with vancomycin (C. difficile P11; C. difficile P11): 0.5 µg/mL
- MIC alone (C. difficile P11; C. difficile P11, Table 4): 0.5 µg/mL
- MIC (C. difficile P11; Clostridioides difficile, C. difficile P11, Table 3, read-out: MIC alone): 0.5 µg/mL
- Interpretation (C. difficile P11; [22]): SYN (ΣFIC index ≤0.5 is considered synergistic (SYN))
- ΣFIC Index (C. difficile P11; [22]): 0.37
- Interpretation (C. difficile P11; [23]): ADD (ΣFIC index >0.5 − 1.25 is considered additive (ADD))
- ΣFIC Index (C. difficile P11; [23]): 1.125
- MIC of DIHQ combined with metronidazole (C. difficile P19; C. difficile P19): 0.06 µg/mL
- MIC of DIHQ combined with vancomycin (C. difficile P19; C. difficile P19): 0.125 µg/mL
- MIC alone (C. difficile P19; C. difficile P19, Table 4): 0.5 µg/mL
- MIC (C. difficile P19; Clostridioides difficile, C. difficile P19, Table 3, read-out: MIC alone): 0.5 µg/mL
- Interpretation (C. difficile P19; [24]): SYN (ΣFIC index ≤0.5 is considered synergistic (SYN))
- ΣFIC Index (C. difficile P19; [24]): 0.24
- Interpretation (C. difficile P19; [25]): SYN (ΣFIC index ≤0.5 is considered synergistic (SYN))
- ΣFIC Index (C. difficile P19; [25]): 0.375

Compound: CCc1c(Cl)c(O)c(Cl)c(O)c1C(=O)O[C@H]1[C@H](O)[C@H](OC)[C@H](OC/C2=C\C=C\C[C@H](O)/C(C)=C/[C@H](CC)[C@@H](O[C@@H]3OC(C)(C)[C@@H](OC(=O)C(C)C)[C@H](O)[C@@H]3O)/C(C)=C/C(C)=C/C[C@@H]([C@@H](C)O)OC2=O)O[C@@H]1C [Fidaxomicin, fidaxomicin]
- MIC [1]: 2 µg/mL (≈ 1.89 µM)
- MIC [2]: ≤ 1 µg/mL
- MIC [3]: > 128 µg/mL
- MIC (Bacteroides dorei HM-29): > 128 µg/mL
- MIC [4]: ≤ 1 µg/mL
- MIC (Bacteroides dorei HM-719): 128 µg/mL (≈ 121 µM)
- MIC [5]: > 128 µg/mL
- MIC [6]: ≤ 1 µg/mL
- MIC [7]: ≤ 1 µg/mL
- MIC [8]: > 128 µg/mL
- reduction in spore count (C. difficile NR-49277; C. difficile NR-49277, 1×MIC): ~1.27 log10
- reduction in spore count (C. difficile NR-49277; C. difficile NR-49277, ½×MIC): ~0.8 log10
- reduction in spore count (C. difficile ATCC 43255 [10]; C. difficile ATCC 43255, 1×MIC): ~1.8 log10
- reduction in spore count (C. difficile ATCC 43255 [10]; C. difficile ATCC 43255, ½×MIC): ~0.75 log10
- reduction in spore count [11, 12]: ~1.8 log10
- reduction in spore count [11, 13]: ~1.02 log10
